The numbers were not newly measured in patent US11273125B2, “Preparation of desiccated liposomes for use in compressible delivery systems” (SMARTEK INTERNATIONAL LLC, priority 2017, dated 2022), which cites them from elsewhere.

Molecules are shown by their SMILES.

For this data set the following is noted: poor bioavailability of the unformulated compound; route and species not given.

In the case of `COc1ccc2c(=O)cc(-c3ccccc3)oc2c1` [7-methoxyflavone], the bioavailability result is reported as “approximately 5%”.
